Data taken from patent publication US8916570B2 (The United States of America, as represented by the …, priority 2008, dated 2014).
Numbering of substitutions follows the chain as printed. Like-named read-outs stand apart in the source and are kept apart here.

What was measured:
[1] = molecular target: T1, mouse A1 adenosine receptor (Mus musculus, UniProt Q60612); test: Competition radioligand binding, mouse A1 AR, HEK293 membranes (Table 1); conditions: read-out: A1 Ki; species M (mouse); [125I]I-AB-MECA; mean ± SEM
T1 sequence (Q60612 1-326): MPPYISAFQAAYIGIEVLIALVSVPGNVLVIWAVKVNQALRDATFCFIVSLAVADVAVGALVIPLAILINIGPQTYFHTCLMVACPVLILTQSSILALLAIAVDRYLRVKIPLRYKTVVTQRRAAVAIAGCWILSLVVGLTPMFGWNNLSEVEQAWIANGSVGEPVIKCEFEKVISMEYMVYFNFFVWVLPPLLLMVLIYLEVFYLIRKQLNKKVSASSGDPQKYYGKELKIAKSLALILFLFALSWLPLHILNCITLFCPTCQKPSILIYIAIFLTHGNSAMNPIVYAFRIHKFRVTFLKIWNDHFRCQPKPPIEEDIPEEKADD

[2] = molecular target: T2, mouse A3 adenosine receptor (Mus musculus, UniProt Q61618); test: Competition radioligand binding, mouse A3 AR, HEK293 membranes (Table 1); conditions: for Ki: read-out: A3 Ki, species M (mouse), [125I]I-AB-MECA
T2 sequence (Q61618 1-319): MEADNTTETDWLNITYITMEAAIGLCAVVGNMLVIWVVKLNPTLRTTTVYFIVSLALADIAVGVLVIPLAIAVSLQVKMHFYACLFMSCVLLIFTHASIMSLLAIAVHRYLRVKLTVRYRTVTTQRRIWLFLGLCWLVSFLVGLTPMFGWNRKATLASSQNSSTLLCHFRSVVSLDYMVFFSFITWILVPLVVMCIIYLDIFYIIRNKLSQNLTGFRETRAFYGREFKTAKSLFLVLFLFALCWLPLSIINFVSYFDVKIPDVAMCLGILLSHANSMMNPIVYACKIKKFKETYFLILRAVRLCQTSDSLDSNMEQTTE

[3] = molecular target: T3, human A1 adenosine receptor (Homo sapiens, UniProt P30542); parameters: expressed in transfected cells; host or cells: CHO; conditions: species H (human); data from Tchilibon et al. or Kim et al.; cited from earlier work
T3 sequence (P30542 1-326): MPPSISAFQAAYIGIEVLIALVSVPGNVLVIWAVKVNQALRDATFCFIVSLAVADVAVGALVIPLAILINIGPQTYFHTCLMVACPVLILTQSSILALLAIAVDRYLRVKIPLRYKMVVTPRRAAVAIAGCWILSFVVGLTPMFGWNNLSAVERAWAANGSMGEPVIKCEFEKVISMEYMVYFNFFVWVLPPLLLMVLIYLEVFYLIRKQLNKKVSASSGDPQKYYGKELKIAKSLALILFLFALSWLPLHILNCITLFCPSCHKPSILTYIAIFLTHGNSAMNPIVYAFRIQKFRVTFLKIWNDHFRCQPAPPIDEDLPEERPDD

mA2AAR = molecular target: T4, mA2AAR (Mus musculus, UniProt Q60613); conditions: values from Melman et al.; read-out: Affinity (Ki, nM) mA2A; cited from earlier work
T4 construct: expressed in transfected cells

hA2AAR = molecular target: T5, hA2AAR (Homo sapiens, UniProt P29274); conditions: values from the literature (footnotes c, d); read-out: Affinity (Ki, nM) hA2A; cited from earlier work
T5 construct: expressed in transfected cells

mA3AR = molecular target: T6, mA3AR (Mus musculus, UniProt Q61618); conditions: values from Melman et al.; read-out: Affinity (Ki, nM) mA3; cited from earlier work
T6 construct: expressed in transfected cells
T6 sequence (Q61618 1-319): T2 sequence (Q61618 1-319)

rat A3 AR [4] = molecular target: T7, rat A3 AR (Rattus norvegicus, UniProt P28647); conditions: species R (rat); data from Tchilibon et al. / Lee et al.; cited from earlier work
T7 sequence (P28647 1-320): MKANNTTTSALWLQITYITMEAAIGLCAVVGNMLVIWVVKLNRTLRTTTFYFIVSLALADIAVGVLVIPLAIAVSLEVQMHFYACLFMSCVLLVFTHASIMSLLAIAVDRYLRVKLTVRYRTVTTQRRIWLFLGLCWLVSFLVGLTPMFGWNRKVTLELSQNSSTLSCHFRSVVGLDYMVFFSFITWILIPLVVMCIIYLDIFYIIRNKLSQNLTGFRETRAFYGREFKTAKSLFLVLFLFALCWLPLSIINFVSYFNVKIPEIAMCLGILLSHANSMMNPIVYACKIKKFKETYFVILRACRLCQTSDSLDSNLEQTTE

[5] = molecular target: mouse A2A adenosine receptor (Mus musculus, UniProt Q60613); test: Competition radioligand binding, mouse A2A AR, HEK293 membranes (Table 1); conditions: read-out: A2A Ki; species M (mouse); [3H]CGS21680
hA1AR = molecular target: T8, hA1AR (Homo sapiens, UniProt P30542); conditions: values from the literature (footnotes c, d); read-out: Affinity (Ki, nM) hA1; cited from earlier work
T8 construct: expressed in transfected cells; host or cells: CHO
T8 sequence (P30542 1-326): T3 sequence (P30542 1-326)

mA1AR = molecular target: T9, mA1AR (Mus musculus, UniProt Q60612); conditions: values from Melman et al.; read-out: Affinity (Ki, nM) mA1; cited from earlier work
T9 construct: expressed in transfected cells
T9 sequence (Q60612 1-326): T1 sequence (Q60612 1-326)

[6] = molecular target: T10, human A2A adenosine receptor (Homo sapiens, UniProt P29274); parameters: expressed in transfected cells; conditions: species H (human); data from Tchilibon et al. or Kim et al.; cited from earlier work
human A2A receptors = molecular target: T11, human A2A receptors (Homo sapiens, UniProt P29274); test: Binding at human A2A receptor, HEK-293 membranes (Example 4); conditions: read-out: Affinity (Ki nM) A2A
T11 construct: expressed in transfected cells

human A3 receptor = molecular target: T12, human A3 receptor (Homo sapiens, UniProt P0DMS8); test: Binding assay at the human A3 receptor, CHO membranes (Example 4)
T12 sequence (P0DMS8 1-318): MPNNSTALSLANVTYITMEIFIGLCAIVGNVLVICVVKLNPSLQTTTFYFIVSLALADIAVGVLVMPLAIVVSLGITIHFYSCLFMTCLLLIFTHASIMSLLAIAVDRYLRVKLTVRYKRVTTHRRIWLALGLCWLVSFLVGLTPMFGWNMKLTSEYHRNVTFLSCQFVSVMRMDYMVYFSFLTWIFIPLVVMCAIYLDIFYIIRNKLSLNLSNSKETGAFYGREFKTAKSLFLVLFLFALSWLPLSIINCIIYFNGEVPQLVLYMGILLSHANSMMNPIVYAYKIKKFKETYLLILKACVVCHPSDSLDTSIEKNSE

rat A1 AR = molecular target: T13, rat A1 AR (Rattus norvegicus, UniProt P25099); conditions: species R (rat); data from Lee et al.; cited from earlier work
T13 sequence (P25099 1-326): T1 sequence (Q60612 1-326) with E151V, A155D, I157R, E316D, I319L, D325E

hA3AR = molecular target: T14, hA3AR (Homo sapiens, UniProt P0DMS8); conditions: at 10 μM vs maximal effect of 51 (= 100%); values from the literature; cited from earlier work
T14 construct: expressed in transfected cells; host or cells: CHO
T14 sequence (P0DMS8 1-318): T12 sequence (P0DMS8 1-318)

rat A2A AR = rat A2A AR (Rattus norvegicus, UniProt P30543); conditions: species R (rat); data from Lee et al.; cited from earlier work
[7] = molecular target: T10, human A2A adenosine receptor; test: Radioligand binding, human A2A AR (Table 1); conditions: read-out: A2A Ki; species H (human)
rat A3 AR [8] = molecular target: T7, rat A3 AR; test: Radioligand binding, rat A3 AR (Table 1); conditions: species R (rat)
[9] = molecular target: T3, human A1 adenosine receptor; test: Radioligand binding, human A1 AR, CHO membranes (Table 1); conditions: read-out: A1 Ki; species H (human)

T10 sequence (P29274 whole entry): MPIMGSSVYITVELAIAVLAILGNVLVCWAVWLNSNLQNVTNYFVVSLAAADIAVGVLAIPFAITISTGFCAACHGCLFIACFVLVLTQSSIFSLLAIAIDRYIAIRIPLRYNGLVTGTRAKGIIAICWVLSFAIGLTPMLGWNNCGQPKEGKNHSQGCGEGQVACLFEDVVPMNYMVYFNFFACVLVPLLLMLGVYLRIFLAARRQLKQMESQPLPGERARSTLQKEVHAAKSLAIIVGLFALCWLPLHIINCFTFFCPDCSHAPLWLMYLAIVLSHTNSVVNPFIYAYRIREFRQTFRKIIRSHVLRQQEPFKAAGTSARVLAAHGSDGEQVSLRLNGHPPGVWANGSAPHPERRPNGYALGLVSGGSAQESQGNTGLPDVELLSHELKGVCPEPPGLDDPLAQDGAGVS
Sequence of mouse A2A adenosine receptor (Q60613 whole entry): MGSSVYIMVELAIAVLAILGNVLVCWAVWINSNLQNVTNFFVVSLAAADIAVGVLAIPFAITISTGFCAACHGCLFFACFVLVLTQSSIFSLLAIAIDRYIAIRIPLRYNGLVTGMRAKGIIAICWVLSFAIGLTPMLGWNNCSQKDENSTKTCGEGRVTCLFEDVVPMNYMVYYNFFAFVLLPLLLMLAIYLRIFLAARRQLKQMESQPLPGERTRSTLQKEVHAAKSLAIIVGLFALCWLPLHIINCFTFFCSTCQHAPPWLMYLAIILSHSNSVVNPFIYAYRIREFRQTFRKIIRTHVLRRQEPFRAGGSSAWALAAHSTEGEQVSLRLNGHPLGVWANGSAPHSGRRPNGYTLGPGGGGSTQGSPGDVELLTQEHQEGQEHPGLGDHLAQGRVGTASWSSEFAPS
T5 sequence (P29274 whole entry): as the sequence (P29274 whole entry) above
T4 sequence (Q60613 whole entry): as the sequence (Q60613 whole entry) above
T11 sequence (P29274 whole entry): as the sequence (P29274 whole entry) above
Sequence of rat A2A AR (P30543 whole entry): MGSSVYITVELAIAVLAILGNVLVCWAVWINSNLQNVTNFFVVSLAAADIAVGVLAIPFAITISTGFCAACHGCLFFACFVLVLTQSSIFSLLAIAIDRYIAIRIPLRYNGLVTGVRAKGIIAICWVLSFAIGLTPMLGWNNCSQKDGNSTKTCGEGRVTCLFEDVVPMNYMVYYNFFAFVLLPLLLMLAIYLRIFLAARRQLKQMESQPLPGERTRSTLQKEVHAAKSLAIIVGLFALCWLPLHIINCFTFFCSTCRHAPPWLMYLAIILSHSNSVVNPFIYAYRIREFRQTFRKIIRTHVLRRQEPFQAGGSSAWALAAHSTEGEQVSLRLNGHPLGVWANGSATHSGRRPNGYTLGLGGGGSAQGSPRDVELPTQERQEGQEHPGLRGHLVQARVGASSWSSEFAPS

Ki [1] | Ki [2] | Ki [5] | Ki (rat A3 AR [8]) | SMILES | Ki [3] | Ki (mA2AAR) | Ki (hA2AAR) | Ki (mA3AR) | Ki (hA1AR) | Ki (mA1AR) | Ki [6] | also measured
15.3 ± 5.8 nM | 1.49 ± 0.46 nM | 10400 ± 1700 nM | – | CNC(=O)[C@@]12C[C@@H]1[C@@H](n1cnc3c(NCc4cccc(Cl)c4)nc(Cl)nc31)[C@H](O)[C@@H]2O [Compound 13] | 260 ± 60 nM | 10400 nM | 2300 ± 100 nM | 1.49 ± 0.46 nM | 260 ± 60 nM | 15.3 ± 5.8 nM | 2300 ± 100 nM | Ki (rat A3 AR [4]): 1 nM
– | – | – | – | OC1C(O)C(n2cnc3c(NCc4cccc(Br)c4)nc(Cl)nc32)C2CC12 (stereo not drawn) [Compound 109b, (1′R,2′R,3′S, 4′R,5′S)-4′42-Chloro-6-(3-bromobenzylamino)purine-1-2′,3′-O-dihydroxybicyclo-[3.1.0]hexane] | – | – | – | – | – | – | – | Ki (human A2A receptors): 1600 nM
– | – | – | – | O[C@@H]1[C@H](O)[C@@H]2C[C@@H]2[C@H]1n1cnc2c(Nc3cccc4ccccc34)nc(Cl)nc21 [Compound 110b, (1′R,2′R,3′S, 4′R,5′S)-4′-[2-Chloro-6-(1-naphthylamino)purine]-2′,3′-O-dihydroxybicyclo[3.1.0]hexane] | – | – | – | – | – | – | – | binding to the A3AR (in words) (human A3 receptor): nanomolar binding affinity
7.32 ± 1.5 nM | 0.8 ± 0.14 nM | 5350 ± 860 nM | 1.1 nM | CNC(=O)[C@@]12C[C@@H]1[C@@H](n1cnc3c(NCc4cccc(I)c4)nc(Cl)nc31)[C@H](O)[C@@H]2O [Compound 15] | – | 5350 nM | 784 ± 97 nM | 0.8 ± 0.14 nM | 136 ± 22 nM | 7.32 ± 1.5 nM | – | Ki (rat A1 AR): 83.9 nM; % Efficacy hA3 (hA3AR): 100%; Ki (rat A2A AR): 1660 nM; Ki [7]: 784 ± 97 nM; Ki [9]: 136 ± 22 nM
8.79 ± 0.12 nM | 0.9 ± 0.22 nM | 6390 ± 870 nM | 0.76 nM | CNC(=O)[C@@]12C[C@@H]1[C@@H](n1cnc3c(NCc4cccc(Br)c4)nc(Cl)nc31)[C@H](O)[C@@H]2O [Compound 14] | 270 nM | – | – | – | – | – | 1300 nM | Selectivity A1/A3 ([2]; mouse): 9.8
